Results published in ChEMBL document CHEMBL5303573, “Mapping human microbiome drug metabolism by gut bacteria and their genes” (Nature, 2019).

Columns and labels:
[1] = The drug is tested on Coprococcus comes strain: ATCC27758 for biotransformation. The drug concentrations were measured before and after a 12-h incubation by liquid-chromatography-coupled mass spectrometry (LC–MS); type: ADME; design: dose 2 uM, timepoint 0 vs 12 hours; details: 2 µM
[2] = anaerostipes sp., 12 h, 2 µM
Description: The drug is tested on Anaerostipes sp. strain: fecal isolate for biotransformation. The drug concentrations were measured before and after a 12-h incubation by liquid-chromatography-coupled mass spectrometry (LC–MS)

[3] = The drug is tested on Clostridium ramosum strain: DSM1402 for biotransformation. The drug concentrations were measured before and after a 12-h incubation by liquid-chromatography-coupled mass spectrometry (LC–MS); details: thomasclavelia ramosa, 2 µM
[4] = The drug is tested on Eubacterium ventriosum strain: ATCC27560 for biotransformation. The drug concentrations were measured before and after a 12-h incubation by liquid-chromatography-coupled mass spectrometry (LC–MS); type: ADME; design: dose 2 uM, timepoint 0 vs 12 hours; details: 2 µM
[5] = The drug is tested on Edwardsiella tarda strain: ATCC23685 for biotransformation. The drug concentrations were measured before and after a 12-h incubation by liquid-chromatography-coupled mass spectrometry (LC–MS); details: 2 µM
[6] = The drug is tested on Escherichia coli strain: BW25113 for biotransformation. The drug concentrations were measured before and after a 12-h incubation by liquid-chromatography-coupled mass spectrometry (LC–MS); details: 2 µM
[7] = limosilactobacillus reuteri cf48-3a, 12 h, 2 µM
Description: The drug is tested on Lactobacillus reuteri CF48-3A strain: BEI HM-102 for biotransformation. The drug concentrations were measured before and after a 12-h incubation by liquid-chromatography-coupled mass spectrometry (LC–MS)

[8] = The drug is tested on Ruminococcus torques strain: ATCC27756 for biotransformation. The drug concentrations were measured before and after a 12-h incubation by liquid-chromatography-coupled mass spectrometry (LC–MS); type: ADME; design: dose 2 uM, timepoint 0 vs 12 hours; details: 2 µM
[9] = The drug is tested on Enterococcus faecalis strain: V583 for biotransformation. The drug concentrations were measured before and after a 12-h incubation by liquid-chromatography-coupled mass spectrometry (LC–MS); details: 2 µM
[10] = bacteroides stercoris, 12 h, 2 µM
Description: The drug is tested on Bacteroides stercoris strain: ATCC43183 for biotransformation. The drug concentrations were measured before and after a 12-h incubation by liquid-chromatography-coupled mass spectrometry (LC–MS)

[11] = The drug is tested on Bacteroides vulgatus strain: ATCC8482 for biotransformation. The drug concentrations were measured before and after a 12-h incubation by liquid-chromatography-coupled mass spectrometry (LC–MS); details: phocaeicola vulgatus, 2 µM
[12] = The drug is tested on Anaerococcus hydrogenalis strain: DSM7454 for biotransformation. The drug concentrations were measured before and after a 12-h incubation by liquid-chromatography-coupled mass spectrometry (LC–MS); details: 2 µM
[13] = The drug is tested on Bacteroides xylanisolvens strain: DSM18836 for biotransformation. The drug concentrations were measured before and after a 12-h incubation by liquid-chromatography-coupled mass spectrometry (LC–MS); details: 2 µM
[14] = The drug is tested on Anaerotruncus colihominis strain: DSM17241 for biotransformation. The drug concentrations were measured before and after a 12-h incubation by liquid-chromatography-coupled mass spectrometry (LC–MS); details: 2 µM
[15] = The drug is tested on Bacteroides pectinophilus strain: ATCC43243 for biotransformation. The drug concentrations were measured before and after a 12-h incubation by liquid-chromatography-coupled mass spectrometry (LC–MS); details: 2 µM
[16] = The drug is tested on Bifidobacterium longum subsp. Infantis strain: CCUG52486 for biotransformation. The drug concentrations were measured before and after a 12-h incubation by liquid-chromatography-coupled mass spectrometry (LC–MS); details: 2 µM
[17] = The drug is tested on Clostridium symbiosum strain: ATCC14940 for biotransformation. The drug concentrations were measured before and after a 12-h incubation by liquid-chromatography-coupled mass spectrometry (LC–MS); details: 2 µM
[18] = bacteroides thetaiotaomicron, 12 h, 2 µM
Description: The drug is tested on Bacteroides thetaiotaomicron strain: 3731 for biotransformation. The drug concentrations were measured before and after a 12-h incubation by liquid-chromatography-coupled mass spectrometry (LC–MS)

[19] = akkermansia muciniphila, 12 h, 2 µM
Description: The drug is tested on Akkermansia muciniphila strain: ATCC BAA-835 for biotransformation. The drug concentrations were measured before and after a 12-h incubation by liquid-chromatography-coupled mass spectrometry (LC–MS)

[20] = parabacteroides distasonis, 12 h, 2 µM
Description: The drug is tested on Parabacteroides distasonis strain: ATCC8503 for biotransformation. The drug concentrations were measured before and after a 12-h incubation by liquid-chromatography-coupled mass spectrometry (LC–MS)

[21] = The drug is tested on Ruminococcus gnavus strain: ATCC29149 for biotransformation. The drug concentrations were measured before and after a 12-h incubation by liquid-chromatography-coupled mass spectrometry (LC–MS); details: mediterraneibacter gnavus, 2 µM
[22] = parabacteroides johnsonii, 12 h, 2 µM
Description: The drug is tested on Parabacteroides johnsonii strain: DSM18315 for biotransformation. The drug concentrations were measured before and after a 12-h incubation by liquid-chromatography-coupled mass spectrometry (LC–MS)

[23] = The drug is tested on Alistipes indistinctus strain: DSM22520 for biotransformation. The drug concentrations were measured before and after a 12-h incubation by liquid-chromatography-coupled mass spectrometry (LC–MS); details: 2 µM
[24] = The drug is tested on Clostridium asparagiforme strain: DSM15981 for biotransformation. The drug concentrations were measured before and after a 12-h incubation by liquid-chromatography-coupled mass spectrometry (LC–MS); type: ADME; design: dose 2 uM, timepoint 0 vs 12 hours; details: enterocloster asparagiformis, 2 µM
[25] = The drug is tested on Collinsella aerofaciens strain: ATCC25986 for biotransformation. The drug concentrations were measured before and after a 12-h incubation by liquid-chromatography-coupled mass spectrometry (LC–MS); details: 2 µM
[26] = The drug is tested on Bacteroides dorei strain: DSM17855 for biotransformation. The drug concentrations were measured before and after a 12-h incubation by liquid-chromatography-coupled mass spectrometry (LC–MS); details: phocaeicola dorei, 2 µM
[27] = The drug is tested on Dorea formicigenerans strain: ATCC27755 for biotransformation. The drug concentrations were measured before and after a 12-h incubation by liquid-chromatography-coupled mass spectrometry (LC–MS); details: 2 µM
[28] = The drug is tested on Providencia stuartii strain: ATCC25827 for biotransformation. The drug concentrations were measured before and after a 12-h incubation by liquid-chromatography-coupled mass spectrometry (LC–MS); details: 2 µM
[29] = The drug is tested on Bacteroides fragilis strain: ATCC43859 for biotransformation. The drug concentrations were measured before and after a 12-h incubation by liquid-chromatography-coupled mass spectrometry (LC–MS); details: 2 µM
[30] = The drug is tested on Bifidobacterium breve strain: DSM20213 for biotransformation. The drug concentrations were measured before and after a 12-h incubation by liquid-chromatography-coupled mass spectrometry (LC–MS); details: 2 µM
[31] = The drug is tested on Bacteroides fragilis strain: HMW610 for biotransformation. The drug concentrations were measured before and after a 12-h incubation by liquid-chromatography-coupled mass spectrometry (LC–MS); details: 2 µM
[32] = The drug is tested on Blautia luti strain: DSM14534 for biotransformation. The drug concentrations were measured before and after a 12-h incubation by liquid-chromatography-coupled mass spectrometry (LC–MS); type: ADME; design: dose 2 uM, timepoint 0 vs 12 hours; details: 2 µM
[33] = The drug is tested on Parabacteroides merdae strain: ATCC43184 for biotransformation. The drug concentrations were measured before and after a 12-h incubation by liquid-chromatography-coupled mass spectrometry (LC–MS); details: 2 µM
[34] = segatella copri, 12 h, 2 µM
Description: The drug is tested on Prevotella copri strain: DSM18205 for biotransformation. The drug concentrations were measured before and after a 12-h incubation by liquid-chromatography-coupled mass spectrometry (LC–MS)

[35] = bifidobacterium adolescentis, 12 h, 2 µM
Description: The drug is tested on Bifidobacterium adolescentis strain: ATCC 15703 for biotransformation. The drug concentrations were measured before and after a 12-h incubation by liquid-chromatography-coupled mass spectrometry (LC–MS)

[36] = The drug is tested on Clostridium scindens strain: ATCC35704 for biotransformation. The drug concentrations were measured before and after a 12-h incubation by liquid-chromatography-coupled mass spectrometry (LC–MS); details: 2 µM
[37] = enterocloster bolteae, 12 h, 2 µM
Description: The drug is tested on Clostridium bolteae strain: ATCCBAA-613 for biotransformation. The drug concentrations were measured before and after a 12-h incubation by liquid-chromatography-coupled mass spectrometry (LC–MS)

[38] = The drug is tested on Enterobacter cancerogenus strain: ATCC35316 for biotransformation. The drug concentrations were measured before and after a 12-h incubation by liquid-chromatography-coupled mass spectrometry (LC–MS); details: 2 µM
[39] = The drug is tested on Collinsella intestinalis strain: DSM13280 for biotransformation. The drug concentrations were measured before and after a 12-h incubation by liquid-chromatography-coupled mass spectrometry (LC–MS); details: 2 µM
[40] = The drug is tested on Bacteroides caccae strain: ATCC43185 for biotransformation. The drug concentrations were measured before and after a 12-h incubation by liquid-chromatography-coupled mass spectrometry (LC–MS); details: 2 µM

Measured: Bacterial Biotransformation

Nc1nc(NC2CC2)c2ncn([C@H]3C=C[C@@H](CO)C3)c2n1.Nc1nc(NC2CC2)c2ncn([C@H]3C=C[C@@H](CO)C3)c2n1.O=S(=O)(O)O [ABACAVIR SULFATE]
Compound NOT metabolized: all assays above
